Patent publication US8258097B2, “Amino acid derivatives” (Proximagen Ltd., priority 2007, dated 2012)

Tested on: 6-OHDA-lesioned rats
Assay: Assessment of rotational (locomotor) activity in 6-OHDA-lesioned rats
Type: in vivo, Male Wistar rats
Details: p.o., with benserazide 10 mg/kg, 63.4 μmole/kg
Procedure: • Animals Male Wistar rats, 200-225 g on arrival, Harlan Ltd. • Housing Animals were housed in groups of 4 on a 12-h light-dark cycle with an environment of 50% humidity and temperature of 21±2° C. in accordance with Animals (Scientific Procedures) Act […] Home Office regulations. Rats had access to food and water ad libitum. • Licence All animals used in this study were treated in accordance with the UK 1986 Animals (Scientific Procedures Act). Procedure • Surgery Male Wistar rats were anaesthetized in an induction chamber using isofluorane (1-2% in 95% O2, 5% CO2 carrier gas), placed in a Kopf stereotaxic frame and anaesthesia maintained with 0.5-1.0% isofluorane. An incision was made in the scalp and a 0.8-mm-diameter hole made in the skull at coordinates AP: −2.6 mm, L: +2.0 mm (all co-ordinated measured from bregma). The neurotoxin 6-hydroxydopamine (6-OHDA) (8 μg free base in 4 μL of 0.9% saline containing 0.05% ascorbic acid) was injected into the left median forebrain bundle at a constant rate over 4 min (1 μl/min) using a 10-μL Hamilton syringe lowered to −8 mm below the dura. The needle remained in place for a further 4 min before being removed, and the wound cleaned and sutured. Carprofen (5 mg/kg subcutaneously) was administered for pain relief and a rehydration treatment of 5% glucose in 0.9% saline (up to 5 ml ip) was given prior to recovery from the anaesthetic. Behavioural Assessment Confirmation of the Lesion • At least 2 weeks following surgery, animals were examined for rotational behaviour (see below) in response to the administration of apomorphine hydrochloride (0.5 mg/kg s.c. in 0.9% saline containing 0.05% ascorbic acid) to evaluate the extent of the lesion. […]. Animals were placed in rotometers (Med Associates) for up to 30 min to measure basal activity. They were then treated with benserazide (10 mg/kg) concomitantly with test compound or L-DOPA (63.4 μmole/kg ip or po). Rotation behaviour was assessed for up to 6 hours after test drug/L-DOPA administration. Animals were typically treated with a series of compounds for comparative purposes. Each treatment was administered at least 1 day apart. Data Analysis • The number of rotations measured per 10 minutes over the 6 hour period was determined. Animals were considered active if they turned >10 turns per 10 minutes.

## CNC(=O)Oc1cc(C[C@H](NC(=O)[C@@H](N)Cc2ccc(O)c(O)c2)C(=O)OC)ccc1O.Cl [Example 8, (S)-2-(3,4-Dihydroxy-phenyl)-1-[(S)-2-(4-hydroxy-3-methylcarbamoyloxy-phenyl)-1-methoxycarbonyl-ethylcarbamoyl]-ethyl-ammonium chloride]
  AUC (locomotor activity): 928 (±161) rotations per 220 min
  locomotor activity compared to baseline: increased locomotor activity compared to baseline
  peak locomotor activity: 92 (±20) rotations per 10 min
Active = >10 turns per 10 minutes
  duration of locomotor activity: 142 (±7) min
